Measured values as given in ChEMBL document CHEMBL1201862, “PubChem BioAssay data set” (2004).
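The compound was tested at five concentrations on cells cultured in 96-well plates, with a 48-hour exposure period. The concentration for 50% growth inhibition is given as GI50.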 Activity calls are given as the source filed them. Rule as the data show it: active = GI50 up to about 1.1 µM and inactive = higher.

Experiments:
Test in all cases: growth of human tumour cells (NCI), 48 h
OVCAR-8 = tested on: OVCAR-8
SF-268 = tested on: SF-268
A549 = tested on: A549
OVCAR-3 = tested on: OVCAR-3
SW-620 = tested on: SW-620
NCI-H460 = tested on: NCI-H460
RXF 393 = tested on: RXF 393
UACC-62 = tested on: UACC-62
UO-31 = tested on: UO-31
HCT-15 = tested on: HCT-15
SK-MEL-5 = tested on: SK-MEL-5
IGROV-1 = tested on: IGROV-1
NCI-H522 = tested on: NCI-H522
M14 = tested on: M14
MOLT-4 = tested on: MOLT-4
SR = tested on: SR
UACC-257 = tested on: UACC-257
SNB-19 = tested on: SNB-19
HOP-92 = tested on: HOP-92
LOX IMVI = tested on: LOX IMVI

Structure (SMILES) | GI50 (OVCAR-8) | GI50 (SF-268) | GI50 (A549) | GI50 (OVCAR-3) | GI50 (SW-620) | GI50 (NCI-H460) | GI50 (RXF 393) | GI50 (UACC-62) | GI50 (UO-31) | GI50 (HCT-15) [µM] | GI50 (SK-MEL-5) | GI50 (IGROV-1) | GI50 (NCI-H522) | GI50 (M14) | GI50 (MOLT-4) | GI50 (SR) | GI50 (UACC-257) | GI50 (SNB-19) | GI50 (HOP-92) | GI50 (LOX IMVI)
CCCCOC(=O)CN1C(=O)c2ccccc2C1=O | > 100 µM (inactive) | > 100 µM (inactive) | > 100 µM (inactive) | > 100 µM (inactive) | > 100 µM (inactive) | > 100 µM (inactive) | > 100 µM (inactive) | > 100 µM (inactive) | > 100 µM (inactive) | > 100 | > 100 µM (inactive) | > 100 µM (inactive) | > 100 µM (inactive) | > 100 µM (inactive) | > 100 µM (inactive) | > 100 µM (inactive) | > 100 µM (inactive) | > 100 µM (inactive) | > 100 µM (inactive) | > 100 µM (inactive)
CCC1=NC(C(F)(F)F)(C(F)(F)F)N=C(N2CCOCC2)O1 | > 100 µM (inactive) | > 100 µM (inactive) | > 100 µM (inactive) | > 100 µM (inactive) | > 100 µM (inactive) | > 100 µM (inactive) | > 100 µM (inactive) | > 100 µM (inactive) | > 100 µM (inactive) | > 100 | > 100 µM (inactive) | > 100 µM (inactive) | > 100 µM (inactive) | > 100 µM (inactive) | > 100 µM (inactive) | > 100 µM (inactive) | > 100 µM (inactive) | > 100 µM (inactive) | > 100 µM (inactive) | > 100 µM (inactive)
CCOc1ccc(C(C)c2cc3c(cc2OC)OCO3)cc1 (stereo not given) | 0.424 µM (active) | 1.05 µM (active) | 0.455 µM (active) | 0.221 µM (active) | 0.259 µM (active) | 0.34 µM (active) | 0.222 µM (active) | 0.376 µM (active) | 0.491 µM (active) | 0.299 | 0.269 µM (active) | 2.75 µM (inactive) | 0.0316 µM (active) | 0.361 µM (active) | 0.396 µM (active) | 0.0982 µM (active) | 0.767 µM (active) | 0.561 µM (active) | 0.855 µM (active) | 0.259 µM (active)
